We go through 1 compound from paper doi:10.1101/2024.12.09.627564, “Cannabinoid inhibition of mechanosensitive K^+ channels” (bioRxiv, 2024).

On the set-up of data set [1]: method as in PMID 32804502. The settings on record: slice recordings; cited from earlier work.
Data set [2] relates to voltage-gated sodium channels. The settings on record: cited from earlier work.
Data set [3] relates to Kv7.2/7.3. Set-up: method as in PMID 35179483, PMID 37857637. The settings on record: activation; cited from earlier work.
The conditions of data set [4]: as measured in plasma or estimated in brain tissue; cited from earlier work.
For data set [5], the system named is TRPV1–4. Details: method as in PMID 30697147, PMID 31566564. As to conditions: activation; cited from earlier work.
The target of data set [6] is T1, Homo sapiens TREK-1 (Homo sapiens, UniProt O95069).
T1 construct: TREK-1 amino acids 1–426; expressed in transfected cells; host or cells: Xenopus laevis oocytes, cRNA injection
T1 sequence (O95069 1-426): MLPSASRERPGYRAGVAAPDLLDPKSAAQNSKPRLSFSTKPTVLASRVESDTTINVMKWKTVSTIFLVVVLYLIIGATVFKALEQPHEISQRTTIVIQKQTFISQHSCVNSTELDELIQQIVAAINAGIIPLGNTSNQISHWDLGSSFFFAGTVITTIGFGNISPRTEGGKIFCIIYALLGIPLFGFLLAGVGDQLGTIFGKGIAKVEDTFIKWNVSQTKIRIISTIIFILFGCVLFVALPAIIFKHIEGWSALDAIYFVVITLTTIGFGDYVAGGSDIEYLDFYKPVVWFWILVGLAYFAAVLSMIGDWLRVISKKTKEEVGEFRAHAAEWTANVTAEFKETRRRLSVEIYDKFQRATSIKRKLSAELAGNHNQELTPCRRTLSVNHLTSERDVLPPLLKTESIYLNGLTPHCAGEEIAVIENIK
Briefly: Excised inside-out patch recording of TREK-1 from Xenopus oocytes. In kind it is biochemical. The source says:
For patch clamp recording from Xenopus oocytes, genes encoding full-length Homo sapiens TRAAK (UniProt Q9NYG8–2), TREK-1 (UniProt O95069), and TREK-2 (UniProt P57789) were codon optimized for eukaryotic expression, synthesized (Genewiz), and cloned into a modified pGEMHE vector using Xho1 and EcoR1 restriction sites. The transcribed messages encode H. sapiens TRAAK amino acids 1–393, TREK-1 amino acids 1–426, or TREK-2 amino acids 1–538 with an additional three amino acids (SNS) at the C terminus. TRAAK mutants were introduced by polymerase chain reaction (PCR). Linearized DNA was transcribed in vitro using T7 polymerase. Complementary RNA (0.1 to 10 ng for TRAAK, TREK-1, TREK-2, and mutants) in 50 nL H2O was injected into Xenopus laevis oocytes extracted from anesthetized frogs. Currents were recorded at 25 °C from inside-out patches excised from oocytes 1 to 5 d after RNA injection. […]
Patches were evaluated with voltage-step protocols to confirm TRAAK expression and minimal non-specific leak based on reversal potential. Currents were recorded using an Axopatch 200B amplifier (Molecular Devices) at a bandwidth of 1 kHz and digitized with an Digidata 1550B (Molecular Devices) at 100–500 kHz using pClamp10.7 software. […] In an effort to minimize variability associated with differences in resting membrane tension, we targeted patches with low basal curvature and low resting channel activity and ensured measured pressure difference across the patch was as close to zero as possible at rest to prevent mechanical activation of channels. Data were analyzed using Clampfit 10.7, Excel, and Graphpad Prism software. […]
To avoid cannabinoid absorption to plastic, cannabinoid solutions were made in glass vials and diluted by weight, perfusion was performed using glass tubing pulled from borosilicate glass Pasteur pipettes (Fisherbrand, Cat# 13–678-20C), and recordings were performed in glass chambers. Channel activity was continuously recorded during perfusion steps. […]

For data set [7], the target named is T2, Homo sapiens TRAAK (Homo sapiens, UniProt Q9NYG8).
T2 construct: The transcribed messages encode H. sapiens TRAAK amino acids 1–393; expressed in transfected cells; host or cells: Xenopus laevis oocytes, cRNA injection
T2 sequence (Q9NYG8 1-393): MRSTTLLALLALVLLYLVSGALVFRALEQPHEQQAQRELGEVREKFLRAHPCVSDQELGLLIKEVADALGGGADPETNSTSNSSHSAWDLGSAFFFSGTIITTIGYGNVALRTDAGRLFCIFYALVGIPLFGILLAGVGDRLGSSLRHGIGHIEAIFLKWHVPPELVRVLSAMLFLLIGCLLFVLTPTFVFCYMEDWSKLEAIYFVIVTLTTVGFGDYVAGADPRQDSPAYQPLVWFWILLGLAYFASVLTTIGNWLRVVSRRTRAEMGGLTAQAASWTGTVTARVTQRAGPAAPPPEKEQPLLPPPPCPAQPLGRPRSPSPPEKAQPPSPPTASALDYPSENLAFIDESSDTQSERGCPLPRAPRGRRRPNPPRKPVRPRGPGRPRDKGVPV
Briefly: Excised inside-out patch recording of TRAAK from Xenopus oocytes. As to conditions: for inhibition at 1 µM: 1 μM CBD, read-out: percent inhibition. In kind it is biochemical. The source says: For patch clamp recording from Xenopus oocytes, genes encoding full-length Homo sapiens TRAAK (UniProt Q9NYG8–2), TREK-1 (UniProt O95069), and TREK-2 (UniProt P57789) were codon optimized for eukaryotic expression, synthesized (Genewiz), and cloned into a modified pGEMHE vector using Xho1 and EcoR1 restriction sites. The transcribed messages encode H. sapiens TRAAK amino acids 1–393, TREK-1 amino acids 1–426, or TREK-2 amino acids 1–538 with an additional three amino acids (SNS) at the C terminus. TRAAK mutants were introduced by polymerase chain reaction (PCR). Linearized DNA was transcribed in vitro using T7 polymerase. Complementary RNA (0.1 to 10 ng for TRAAK, TREK-1, TREK-2, and mutants) in 50 nL H2O was injected into Xenopus laevis oocytes extracted from anesthetized frogs. Currents were recorded at 25 °C from inside-out patches excised from oocytes 1 to 5 d after RNA injection. The pipette solution contained 15 mM KCl, 135 mM NaCl, 2 mM MgCl2, and 10 mM HEPES (pH = 7.4 with KOH) and the bath solution contained 150 mM KCl and 10 mM HEPES (pH = 7.1 with KOH). Borosilicate glass pipettes were pulled to 2–5 MΩ resistance.
Patches were evaluated with voltage-step protocols to confirm TRAAK expression and minimal non-specific leak based on reversal potential. Currents were recorded using an Axopatch 200B amplifier (Molecular Devices) at a bandwidth of 1 kHz and digitized with an Digidata 1550B (Molecular Devices) at 100–500 kHz using pClamp10.7 software. Pressure was applied with a second-generation high-speed pressure clamp device (HSPC-2-SB, ALA Scientific Instruments). Aggregated data were from patches from n ≥ 2 different cells on different days. No relevant differences were observed between patches from different cells. In an effort to minimize variability associated with differences in resting membrane tension, we targeted patches with low basal curvature and low resting channel activity and ensured measured pressure difference across the patch was as close to zero as possible at rest to prevent mechanical activation of channels. Data were analyzed using Clampfit 10.7, Excel, and Graphpad Prism software. For voltage families, the data were decimated 100x and plotted in Prism. Statistical analysis was conducted with Dunnett’s multiple comparisons test after an ordinary one-way ANOVA using Prism software.
To avoid cannabinoid absorption to plastic, cannabinoid solutions were made in glass vials and diluted by weight, perfusion was performed using glass tubing pulled from borosilicate glass Pasteur pipettes (Fisherbrand, Cat# 13–678-20C), and recordings were performed in glass chambers. Channel activity was continuously recorded during perfusion steps. Patches were exposed to each cannabinoid concentration until a stable current level was reached (0.5–2 minutes). CBD (Cayman Chemical cat#90080) was prepared as a 10mM stock solution in DMSO, CBN (Cayman Chemical cat#25495) was prepared as a 80mM stock solution in DMSO, CBDV (Phytolab Cat#85955) was prepared as a 10mM stock solution in DMSO, and CBDP (Cayman Chemical cat#33611) was purchased as a 2.9 mM stock solution in methanol. Cannabinoids were serially diluted in bath solution to achieve working concentrations of 50 μM to 10 nM. Bath volume in the recording chamber was minimized by suction and drug-containing solutions were delivered three times to ensure establishment of desired concentration in the recording chamber. Cannabinoids were applied from low to high concentration. The recording chamber and perfusion system were washed extensively with methanol after every trial.
The effects of cannabinoids on channel activity were quantified by the reduction in channel current evoked at 0 mV during a gap-free recording or during 200 ms long voltage families with steps ranging from −100 to +100 mV. Currents were normalized to those prior to cannabinoid application to facilitate comparisons across different patches and cells. […]

SMILES strings stand for the structures. Like-named read-outs stand apart in the source and are kept apart here.

Turning to `C=C(C)[C@@H]1CCC(C)=C[C@H]1c1c(O)cc(CCCCC)cc1O` [CBD, Cannabidiol], the “concentration at which antiepileptic effects are observed” value in data set [1] is on record as at most 100 nM. For the same compound, the IC50 (usually the concentration that gives 50% inhibition) in data set [2] was 2 to 10 µM; in data set [6], 1.5 µM; in data set [7] it was about 0.145 µM. In addition, the EC50 (commonly the midpoint of the concentration-response curve) in data set [3] was 0.2 µM; in data set [5] it was 1 to 4 µM. Moreover, in data set [4], the “concentration in treated patients” value was 0.05 to 0.1 µM. For the same compound, the Hill-coefficient in data set [6] (TREK-1 dose-response) came out at 1.5; in data set [7] (TRAAK dose-response), 1.3. In addition, in data set [6] (TREK-1 vs TRAAK), the “fold less sensitive than TRAAK” value was ~ 10 fold. Further, the inhibition – broadly, the relative decrease from the control value, in per cent – at 1 µM is 43 ± 13% in data set [7] (after mβCD treatment (high membrane tension)) and 91 ± 3% in data set [7] (prior to mβCD treatment). For the same compound, the “effect on mechanical activation of TRAAK by negative pressure steps” value in data set [7] (0.5, 1 and 10 μM CBD) is “more negative pressure was required to activate TRAAK to the same degree”. For the same compound, the “fold higher affinity than RU-TRAAK-1 and −2” value in data set [7] (TRAAK inhibitors) was 3–5 fold. In addition, in data set [7] (TRAAK, excised patches), the “concentration at which effects are evident” value is 1 to 10 nM. In addition, the “concentration of full inhibition” value in data set [7] (TRAAK, excised patches) is recorded as ~ 1 μM. Also, the “fold higher concentration required for similar inhibition after mβCD treatment” value in data set [7] (after vs prior to mβCD treatment) is given as “Approximately 10 fold”. Further, the “fold higher affinity than ruthenium red and TKDC” value in data set [7] (nonspecific TRAAK inhibitors) is given as “greater than 10 fold”.
